Data from ChEMBL document CHEMBL2040836, “1,3,8-Triazaspiro[4.5]decane-2,4-diones as efficacious pan-inhibitors of hypoxia-inducible factor prolyl hydroxylase 1-3 (HIF PHD1-3) for the treatment of anemia” (J Med Chem, 2012).

How the values were obtained:
Mus musculus [1] = experiment: Toxicity in C57BL/6 mouse assessed as increase in liver ALT level at 50 mg/kg, iv; assay type: organism-based; design: dose 50 mg/kg, route intravenous; conditions: in vivo
in vivo [2] = conditions: Sprague-Dawley, rat
in vivo [3] = conditions: Sprague-Dawley, rat; remark: listed apart in the source
in vivo [4] = conditions: Sprague-Dawley, rat; remark: listed apart in the source
in vivo [5] = conditions: Sprague-Dawley, rat; remark: listed apart in the source
in vivo [6] = conditions: Sprague-Dawley, rat, po
[7] = Metabolic stability in rat liver microsomes assessed as compound remaining after 30 mins; assay type: ADME, Microsome; conditions: read-out: Stability
[8] = AUC in Sprague-Dawley rat; assay type: ADME, organism-based; design: concentration or dose not given beside the values; conditions: plasma
[9] = Cmax in mouse at 5 mg/kg, po; assay type: ADME, organism-based; design: dose 5 mg/kg, route oral; conditions: in vivo
[10] = Clearance in mouse at 5 mg/kg, po; assay type: ADME, organism-based; design: dose 5 mg/kg, route oral; conditions: in vivo
Mus musculus [11] = experiment: Volume of distribution at steady state in mouse at 5 mg/kg, po; assay type: ADME, organism-based; design: dose 5 mg/kg, route oral; conditions: in vivo
[12] = (§1) Half life in mouse at 5 mg/kg, po; assay type: ADME, organism-based; design: dose 5 mg/kg, route oral; conditions: in vivo
[13] = Oral bioavailability in mouse at 5 mg/kg; assay type: ADME, organism-based; conditions: in vivo
[14] = AUC in mouse at 5 mg/kg, po; assay type: ADME, organism-based; design: dose 5 mg/kg, route oral; conditions: plasma
[15] = Cmax in dog; assay type: ADME, organism-based, Canis lupus familiaris; conditions: in vivo
[16] = Clearance in dog; assay type: ADME, organism-based, Canis lupus familiaris; conditions: in vivo
[17] = Volume of distribution at steady state in dog; assay type: ADME, organism-based, Canis lupus familiaris; conditions: in vivo, read-out: Vdss
[18] = Half life in dog; assay type: ADME, organism-based, Canis lupus familiaris; conditions: in vivo
[19] = AUC in dog; assay type: ADME, organism-based, Canis lupus familiaris; conditions: plasma
[20] = Oral bioavailability in dog; assay type: ADME, organism-based, Canis lupus familiaris; conditions: in vivo
Mus musculus [21] = experiment: as §1; assay type: ADME, organism-based; design: dose 5 mg/kg, route oral; conditions: in vivo
Mus musculus [22] = experiment: Toxicity in C57BL/6 mouse assessed as increase in liver ALT level at 15 mg/kg, iv; assay type: organism-based; design: dose 15 mg/kg, route intravenous; conditions: in vivo
[23] = Toxicity in iv dosed C57BL/6 mouse assessed as no observable effect level; assay type: organism-based; conditions: in vivo

Structure (SMILES)	clearance (in vivo [2]) [mL/min/kg]	Cmax (in vivo [3]) [nM]	Vd (in vivo [4]) [L/kg]	half-life (in vivo [5]) [h]	bioavailability (in vivo [6]) [%]	further results
COc1cc(N2C(=O)N(c3ccc(-c4ccc(C(N)=O)cc4)cc3)C(=O)C23CCN(Cc2ncccc2C)CC3)ncn1						fold change (FC) (Mus musculus [1]): 6.6
Cc1cccnc1CN1CCC2(CC1)C(=O)N(c1ccc(-c3ccc(C(=O)O)cc3)cc1)C(=O)N2c1ncccn1	51	100	2.2	1.1	18	
Cc1cc(C(=O)O)ccc1-c1ccc(N2C(=O)N(c3cnccn3)C3(CCN(Cc4ncccc4C)CC3)C2=O)cc1	22	390	1.6	1.5	29	
Cc1cccnc1CN1CCC2(CC1)C(=O)N(c1ccc(-c3ccc(C(=O)O)cc3)cc1)C(=O)N2c1ccncn1	16	580	2	2.2	8	
Cc1cc(C(=O)O)ccc1-c1ccc(N2C(=O)N(c3ccncn3)C3(CCN(Cc4ncccc4C)CC3)C2=O)cc1	34	390	1.9	1.1	47	
Cn1ccnc1CN1CCC2(CC1)C(=O)N(c1cnc3ccccc3c1)c1ccccc12						remaining at 0.5 h [7]: < 10%
Cc1cccnc1CN1CCC2(CC1)C(=O)N(c1cnc3ccccc3c1)c1ccccc12						remaining at 0.5 h [7]: 35%
Cc1cccnc1CN1CCC2(CC1)C(=O)N(c1ccc(-c3ccccc3)cc1)c1ccccc12	30	79	8.2	3	11	AUC [8]: 1.2 µM·h
Cc1cccnc1CN1CCC2(CC1)C(=O)N(c1ccc(-c3ccccc3)cc1)c1ncccc12	59	40	8	1.9	0	AUC [8]: 0.6 µM·h
Cc1cccnc1CN1CCC2(CC1)NC(=O)N(c1ccc(-c3ccccc3)cc1)C2=O	275	17	2.6	0.12	42	AUC [8]: 0.14 µM·h
Cc1cccnc1CN1CCC2(NC(=O)N(c3ccc(-c4ccccc4)cc3)C2=O)C(C(=O)O)C1 (stereo unspecified)	11	40	0.58	1.1	14	AUC [8]: 3.2 µM·h
Cc1cccnc1CN1CCC2(CC1)C(=O)N(c1ccc(-c3ccccc3)cc1)C(=O)N2c1nccc(O)n1	9	990	0.72	1.1	66	AUC [8]: 3.7 µM·h; Cmax [9]: 990 nM; CL/F [10]: 13 mL/min/kg; Vdss (Mus musculus [11]): 1.3 L/kg; half-life [12]: 1.4 h; bioavailability [13]: 78%; AUC [14]: 1.4 µM·h; Cmax [15]: 1500 nM; clearance [16]: 1.3 mL/min/kg; Vd [17]: 1.1 L/kg; half-life [18]: 13 h; AUC [19]: 41 µM·h; bioavailability [20]: 26%
Cc1cccnc1CN1CCC2(CC1)C(=O)N(c1ccc(-c3ccccc3)cc1)C(=O)N2c1ncccn1	51	101	2.1	1.1	18	
Cc1cccnc1CN1CCC2(CC1)C(=O)N(c1ccc(-c3ccccc3)cc1)C(=O)N2c1cc(O)ccn1	35	340	1.4	0.5	49	
Cc1cccnc1CN1CCC2(CC1)C(=O)N(c1ccc(-c3ccccc3)cc1)C(=O)N2c1ccnc(O)n1	14	1300	0.9	1.2	39	
Cc1cccnc1CN1CCC2(CC1)C(=O)N(c1ccc(-c3ccccc3)cc1)C(=O)N2c1ccc(O)nn1	40	300	1.1	1.2	58	
Cc1cccnc1CN1CCC2(C(=O)N(c3ccc(-c4ccccc4)cc3)C(=O)N2c2cc(O)ncn2)C(C(=O)O)C1 (stereo unspecified)	1.2	63	0.34	3.6	4.3	Cmax [9]: 300 nM; Vdss (Mus musculus [11]): 0.4 L/kg; t1/2 (Mus musculus [21]): 2.1 h; bioavailability [13]: 7.1%
COc1cc(N2C(=O)N(c3ccc(-c4ccc(C(=O)O)cc4)cc3)C(=O)C23CCN(Cc2ncccc2C)CC3)ncn1	8.8	1900	1.7	2.6	92	Cmax [9]: 6100 nM; CL/F [10]: 1.2 mL/min/kg; Vdss (Mus musculus [11]): 0.4 L/kg; half-life [12]: 3.7 h; bioavailability [13]: 36%
COc1cc(N2C(=O)N(c3ccc(-c4cccc(C(=O)O)c4)cc3)C(=O)C23CCN(Cc2ncccc2C)CC3)ncn1						fold change (FC) (Mus musculus [22]): 6.1
COc1cc(N2C(=O)N(c3ccc(-c4ccc(C(=O)O)cc4C)cc3)C(=O)C23CCN(Cc2ncccc2C)CC3)ncn1	11.9	570	4.3	4.1	64	NOAEL [23]: 50 mg/kg
